{"source": "patent US20260234116A1", "about": "“CYTOTOXIC EPOXYKETONE COMPOUNDS, PRECURSORS, COMPOSITIONS, AND METHODS OF USE” (Memorial Sloan-Kettering Cancer Center, priority 2023, published 2026)", "key": {"[1]": {"system": "U266 cells", "assay": "In situ activation of β-ketoacid 11a by EpnF, cell viability, CellTitre-Glo, 48 h", "format": "cell-based", "conditions": "U266, 48 h", "protocol": "For in situ activation of β-ketoacid 11a by EpnF, U266 cells were seeded in a 96-well plate as above, at 20,000 cells per well in […] RPMI. Recombinant EpnF (100 μM in EpnF Buffer) was diluted in RPMI to 5 μM concentration (300 μL final volume), then 10 μL of this enzyme solution was added to the plate wells to 0.5 μM EpnF final concentration. Stock solutions (20 mM) of β-ketoacid 11a and epoxyketone 12a in EtOH or DMSO, respectively, were diluted to 5% EtOH or DMSO in RPMI to provide working stocks at 1 mM. The working stocks were log-diluted to 1 mM-0.05 μM using RPMI containing 5% EtOH or 5% DMSO, respectively. Aliquots of compounds (10 μL) were added to the sample wells for final concentrations of 100-0.005 μM. Separate negative control wells were treated with 10 μL of 5% EtOH or 5% DMSO in RPMI (0.5% final concentration). The cells were incubated for 48 hr, then cell viability was measured with the CellTitre-Glo assay. Results of compound-treated wells were normalized to negative control wells."}, "[2]": {"molecular_target": "EpnF (Streptomyces hygroscopicus, UniProt V5RMU9)", "sequence (V5RMU9 entry or part of it)": "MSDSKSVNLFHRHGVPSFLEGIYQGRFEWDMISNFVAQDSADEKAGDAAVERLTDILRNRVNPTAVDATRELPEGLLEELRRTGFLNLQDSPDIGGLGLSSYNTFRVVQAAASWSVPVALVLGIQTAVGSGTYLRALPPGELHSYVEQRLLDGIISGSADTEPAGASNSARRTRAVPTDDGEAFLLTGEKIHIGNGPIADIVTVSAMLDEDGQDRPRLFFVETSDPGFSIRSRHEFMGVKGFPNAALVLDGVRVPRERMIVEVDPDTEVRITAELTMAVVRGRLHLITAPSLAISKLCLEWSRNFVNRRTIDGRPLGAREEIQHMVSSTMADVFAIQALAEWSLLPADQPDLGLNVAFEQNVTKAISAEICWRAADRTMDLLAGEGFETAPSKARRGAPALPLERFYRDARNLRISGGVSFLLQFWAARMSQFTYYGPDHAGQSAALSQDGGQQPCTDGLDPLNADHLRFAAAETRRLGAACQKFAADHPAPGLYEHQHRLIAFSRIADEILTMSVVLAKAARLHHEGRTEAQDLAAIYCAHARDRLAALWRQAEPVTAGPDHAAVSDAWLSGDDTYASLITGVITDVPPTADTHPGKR", "assay": "Semiquantitative epoxide capture assay (EpnF-catalyzed epoxyketone formation)", "format": "biochemical", "conditions": "1 μM EpnF, 250 μM β-ketoacid substrate, 1 h; positive control 11n (FIG. 1)", "protocol": "Recombinant EpnF was diluted to 1 μM in 180 μL EpnF Buffer in an 1.5 mL Eppendorf tube. The β-ketoacid 11 was added at various concentrations to a total reaction volume of 200 μL. The mixture was incubated in a heated shaker at 37° C. and 225 rpm for 1 h. The reaction mixture (30 μL×3 technical replicates) was transferred to a white, opaque 96-well plate (PerkinElmer, OptiPlate-96). Each plate also contained 30 μL×3 technical replicates of EpnF Buffer as a negative control. To each well, 15 μL of 125 mM nicotinamide in EpnF Buffer was added and mixed by pipetting. The plate was sealed with an adhesive foil cover (VWR Adhesive Foil for Microplates) and heated in an oven at 80° C. for 1 h. The plate was cooled to rt and 25 μL of 15% (v/v) acetophenone in EtOH and 25 μL of 1 M potassium hydroxide in EtOH were added to each well, then mixed by pipetting. The plate was cooled on ice for 10 min, then 125 μL formic acid was added to each well. The plate was resealed and heated in an oven at 100° C. for 5 min. The plate was cooled on ice for 5-10 min, then analyzed (λex 370 nm, λem 430 nm) on a fluorescence plate reader (Molecular Devices Spectramax M3).\nWe adapted a reported epoxide capture assay [Nelis, H. J. C. F.; Sinsheimer, J. E. (1981) A sensitive fluorimetric procedure for the determination of aliphatic epoxides under physiological conditions. Anal. Biochem. 115, 151-157.] to 96-well plate format to detect formation of the epoxyketone products semiquantitatively. Each β-ketoacid substrate 11 was incubated with recombinant, purified EpnF (1 h), then reacted with nicotinamide and acetophenone (1 h) to form a fluorescent 1,6-naphthyridinone 24. The fluorescent signals were normalized to that resulting from the known substrate β-ketoacid 11n as a positive control [Zabala, D.; Cartwright, J. W.; Roberts, D. M.; Law, B. J. C.; Song, L.; Samborskyy, M.; Leadlay, P. F.; Micklefield, J.; Challis, G. L. (2016) A flavin-dependent decarboxylase-dehydrogenase-monooxygenase assembles the warhead of α,β-epoxyketone proteasome inhibitors. J. Am. Chem. Soc. 138, 4342-4345.]."}}}
{"smiles": "CC(C)CCCCC(=O)N[C@@H](CO)C(=O)N[C@@H](CC(C)C)C(=O)C(C)(C)C(=O)O", "note": "[Compound 11a, (4S)-4-[(2S)-3-Hydroxy-2-(6-methylheptanamido)propanamido]-2,2,6-trimethyl-3-oxoheptanoic acid]", "values": [{"measurement": "cytotoxicity of β-ketoacid activated in situ", "setting": "[1]; in presence of EpnF (0.5 μM)", "result": "cytotoxicity comparable to that of the corresponding isolated epoxyketone 12a"}, {"measurement": "no cytotoxicity at up to (concentration)", "setting": "[1]; prodrug alone, absence of EpnF", "result": "> 100", "unit": "µM"}, {"measurement": "EpnF-catalyzed formation of epoxyketone (epoxide capture)", "setting": "[2]", "result": "levels comparable to that of the positive control"}]}
